In assay [1] the test system is bovine REC. The assay is described as follows: REC proliferation assay (MTS). Type of assay: cell-based. Conditions: for effect of kinase inhibitors on proliferation: basal and growth factor-stimulated (CK2 blockers), H-7 preliminary, not shown. How it is done: (§1) REC proliferation and survival assays. 96-well plates were coated with various amounts of TN-C or vehicle. 5×10^3 cells were added to each triplicate well in low-serum REC medium with various amounts of growth factors (0.5% FCS incomplete BREC medium containing 10 ng/ml of human IGF-I, FGF-2, VEGF, PlGF and PDGF-BB [R&D Systems Inc., Minneapolis, Minn.]). Cell numbers were determined on days 4–7 using the MTS cell proliferation assay (Promega Corp.) according to manufacturer's instructions. Survival was measured in the same way using high glucose (30 mM) or chemical hypoxia (2 mM sodium azide) or serum-free medium to induce cell death. Cell numbers were determined on days 4–7 using MTS assay (Promega).

Assay [2] deals with bovine REC. Kind of assay: REC survival assay (MTS, low serum). Type of assay: cell-based. To be noted: for effect of growth factors on REC survival: growth factors 10 ng/mL each. How it is done: as §1
In assay [3] the test system is bovine REC. The assay is described as follows: Secondary sprouting assay on reconstituted basement membrane matrix (MTS). Type of assay: cell-based. To be noted: for effect of kinase inhibitors on secondary sprouting: basal and growth factor-stimulated (CK2 blockers), H-7 preliminary, not shown. How it is done:
(§2) In vitro MATRIGEL™ biological cell culture substrate assay of capillary-like tube formation and secondary sprouting. […] Briefly, 50 μL of reconstituted basement membrane matrix from mouse EHS tumor (BD or GFR MATRIGEL™ biological cell culture substrate; Becton Dickinson Labware, Bedford, Mass.) were dispensed with frozen pipettes into each well of a previously frozen, sterile 96-well plate sitting on wet ice and allowed to solidify for 1 hr at room temperature or 37° C. Approximately 5×10^4 or 7.5×10^4 REC in a 100 μL volume were seeded into each triplicate well. Human recombinant or purified growth factors were added to a final concentration of 10 ng/mL (or as noted) in 0.5% FCS incomplete BREC medium. Capillary-like tube structures formed by REC on reconstituted basement membrane matrix were photographed at various intervals ranging from 12–72 hr; pictures were scanned, digitized and analyzed using image-processing software.
For the secondary sprouting assay, cells on reconstituted basement membrane matrix were seeded as above but incubated in 0.5% FCS incomplete BREC medium without any growth factors for 3 days, allowing for tube formation and collapse. On day 3, human recombinant or purified growth factors were added to a final concentration of 10 ng/mL (or as noted) in low-serum incomplete BREC medium and incubated for another 5–6 days. Digital photographs were obtained with a Kodak MDS 100 camera attached to a Leitz DM IL inverted microscope. Digitized images obtained with a Kodak MDS 100 video camera were stored on compact discs and quantified with NIH Image 1.62 software. The number of living cells in the sprouting colonies were determined using the MTS cell proliferation assay.
A good correlation was observed between the spherical volume and the number of live cells in secondary sprouting colonies (not shown). Since the latter is an easy parameter to test by using the MTS assay, it was adopted as a faster method for studying the effect of various agents on secondary sprouting.

Assay [4] deals with bovine REC. The assay is described as follows: Migration (wound healing) assay. Type of assay: cell-based. To be noted: for effect of kinase inhibitors on migration: basal and growth factor-stimulated (CK2 blockers), H-7 preliminary, not shown; for effect of growth factors on REC migration: growth factors 10 ng/mL each. How it is done:
Migration assay. REC migration rates were examined in a wound healing assay, where cells migrate over time into the scrape wound in a monolayer. Briefly, cells were seeded in 24-well plates and allowed to reach confluence in growth medium. Prior to growth factor treatment, cells were serum-starved overnight in incomplete BREC medium with 0.5% FCS. All monolayers within an experiment were wounded with a single sterile wood stick of constant diameter, to ensure uniformity in the wound areas among different treatments. Wounded monolayers were then rinsed with low-serum medium to remove detached cells and treated with various combinations of human growth factors at 10 ng/mL each. On day 7, cells were rinsed 3× with PBS and fixed with methanol for 15 min, rehydrated with dH2O and stained with Meyer's hematoxylin for 5 min, followed by destaining with dH2O. All wells were photographed with a 4× or 10× objective using a Kodak MDS 100 digital camera attached to a Leitz DM IL inverted microscope. The original wound area was measured at 0 hr and used as a baseline for comparison to the treated wells at the conclusion of the experiment. The number of cells migrated into the wound was determined. Migrating cell counting was automated using the AAB (Advanced American Biotechnology, Fullerton, Calif.) software. Data were calculated and statistically analyzed (Spirin K S et al., Basement membrane and growth factor gene expression in normal and diabetic human retinas, Curr. Eye Res. 18:490–499 [1999]) relative to control cultures that received the same concentrations of bovine serum albumin instead of growth factors and/or inhibitor, compared to vehicle instead of inhibitor after wounding. Inhibitors were added 30 min before growth factors.

The subject of a further assay is REC. Kind of assay: Capillary-like tube formation on MATRIGEL
In kind it is cell-based, bovine. To be noted: for effect of kinase inhibitors on tube formation: basal and growth factor-stimulated (CK2 blockers), H-7 preliminary, not shown. The method, then:
as §2

For assay [5], the system named is retinal neovascularization. The assay is described as follows: Oxygen-induced retinopathy in newborn mice. In kind it is in vivo, mouse.
In a further assay the test system is human REC. Kind of assay: Gene array analysis of growth factor action on normal and DR REC. In kind it is cell-based. Conditions: 10 ng/mL, 7 days, 0.5% serum. How it is done: Normal REC and DR REC gene expression patterns were compared by gene array analysis. Normal, diabetic and DR autopsy human eyes are obtained from National Disease Research Interchange (NDRI), within 24 hours after death. These eyes are used to isolate REC for culture as described hereinabove. Cultures can be used up to the fourth passage, and viable cultures can be cryogenically stored. Cultures of normal, diabetic and DR REC are established from autopsy human eyes and routinely checked for purity using von Willebrand factor immunostaining as described hereinabove. Cells are cultured in 50% F-12, 50% low-glucose DMEM with antibiotics/antimycotics (GIBCO/BRL), insulin-transferrin-selenite, ECGS (Sigma Chemical Co.), and 20% FCS. Statistical analysis of results is done with GraphPad Prism software (GraphPad Software).
In experiments, normal, diabetic, and DR REC were grown for seven days with or without 10 ng/ml VEGF, or 10 ng/mL IGF-I, or 10 ng/mL each VEGF and IGF-I, in medium with 0.5% serum. Long-term rather than short-term treatment was chosen because diabetes develops over a considerable time period. RNA isolated from REC was reverse-transcribed using Smart™ cDNA synthesis method (Clontech), to produce full-length cDNA. Two normal cases or two DR cases were pooled together. This cDNA was PCR-amplified with a short number of cycles and used as a probe for Clontech Atlas Human 1.2 1,200-gene arrays, according to the manufacturer's instructions. This technique had previously been refined and verified by Northern analysis and fully correlated gene array data with protein expression. (Spirin K S et al., Analysis of gene expression in human bullous keratopathy corneas containing limiting amounts of RNA, Invest. Ophthalmol. Vis. Sci. 40:3108–3115 [1999]). Samples were normalized to several housekeeping genes and the analysis was done with available AtlasImage 2.0 software (Clontech). Signal ratio >2 between samples was considered significant as per manufacturer's recommendation.

The results in this text go back to patent US7101707B2, “Secondary sprouting for isolation and expansion of endothelial sprout cells and endothelial precursor cells from a mixed population and for screening substances” (Cedars-Sinai Medical Center, priority 2002, dated 2006).

“Also recorded” adds a separate entry of the source.

As for `OC[C@H]1O[C@@H](n2cnc3cc(Cl)c(Cl)cc32)[C@H](O)[C@@H]1O` [DRB, 5,6-dichloro-1-β-D-ribofuranosylbenzimidazole], in the assay on bovine REC [1], the “effect of kinase inhibitors on proliferation” value is “potently inhibited”. Moreover, the “number of live cells, proliferation” value with bovine REC [1] (bovine REC, 10% serum, various concentrations, day 6, MTS) is reported as “significantly lowers cell number”. For the same compound, the “number of live cells, survival” value in the assay with bovine REC [2] (bovine REC, 0.5% serum, various concentrations, day 6, MTS) was “significantly lowers cell number”. The “effect of kinase inhibitors on secondary sprouting” value in the assay with bovine REC [3] was “potently inhibited”. Moreover, in the assay on bovine REC [3] (bovine REC on MATRIGEL, 0.5% serum, day 9, MTS), the “concentration from which live cell number in secondary sprouting is significantly decreased” value was no less than 25 µM. Moreover, the “effect of kinase inhibitors on migration” value in the assay on bovine REC [4] is “potently inhibited”. The “effect on growth factor-mediated cell migration” value in the assay on bovine REC [4] (four GFs 10 ng/ml each, 7 days, 0.5% serum, emodin 10 μM, DRB 15 μM) was “significant inhibitory effect”. The “effect of kinase inhibitors on tube formation” value with REC was “potently inhibited”. Also, in assay [5] (two intraperitoneal injections daily, day 11 to 17 after birth, emodin 20–30 μg/g, vs untreated or vehicle), the “diminution of retinal neovascularization (preretinal nuclei count)” value is recorded as “about 60%”.
Consider `CC1CNCCN1S(=O)(=O)c1cccc2cnccc12` (stereo not shown) [H-7], for which, in the assay on bovine REC [1], the “effect of kinase inhibitors on proliferation” value is on record as “inhibited”. In addition, the “effect of kinase inhibitors on secondary sprouting” value in the assay on bovine REC [3] was “inhibited”. The “effect of kinase inhibitors on migration” value in the assay on bovine REC [4] is “inhibited”. Also, the “effect of kinase inhibitors on tube formation” value in the assay with REC was “stabilized REC tubes”.
For `O=c1c(O)c(-c2ccc(O)c(O)c2)oc2cc(O)cc(O)c12` [quercetin], the “effect of kinase inhibitors on proliferation” value in the assay on bovine REC [1] was “potently inhibited”. Further, the “effect of kinase inhibitors on secondary sprouting” value in the assay on bovine REC [3] was “potently inhibited”. Also, the “effect of kinase inhibitors on migration” value with bovine REC [4] is listed as “potently inhibited”. Moreover, the “effect of kinase inhibitors on tube formation” value in the assay with REC was “potently inhibited”. Also, in assay [5] (intramuscular injections, data not shown), the “effect on retinal neovascularization” value is given as “substantial effect”.
For “FGF-2: fibroblast growth factor (FGF)-2, angiogenic growth factor”, the “morphology of sprouting colonies after growth factor treatment” value with bovine REC [3] (10 ng/mL) is “longer and sparser sprouts”. For the same compound, the “effect of growth factors on secondary sprouting (live cell number)” value in the assay with bovine REC [3] (10 ng/mL, 0.5% FCS medium) was “potently stimulated; also recorded: pro-angiogenic; also recorded: dramatic increase; also recorded: greatly enhanced”. In addition, the “stimulation of secondary sprouting (fold, on average)” value with bovine REC [3] (growth factors, live cells by MTS) is on record as “four-fold”. Besides, the “effect of growth factors on REC migration” value (“effect … on REC migration” below) in the assay with bovine REC [4] is given as “little or no effect”. Also, the “effect of growth factors on tube formation” value in the assay on REC (growth factors 10 ng/mL each) was “little or no effect”.
Take “IGF-I: insulin-like growth factor (IGF)-I”: the “effect of growth factors on REC survival” value in the assay on bovine REC [2] is listed as “the opposite”. In addition, the “effect … on REC migration” value in the assay with bovine REC [4] is “the opposite”. Further, the “expression of pro-apoptotic genes” value in the assay with human REC was “decrease”.
For the compound VEGF, the “effect of growth factors on REC survival” value in the assay with bovine REC [2] is “little effect”. For the same compound, the “effect … on REC migration” value with bovine REC [4] is “significantly enhanced”. In the assay with human REC, the “expression of pro-apoptotic genes” value is listed as “did not display an increase”, the “expression of proliferation-related genes” value was “upregulated” and the “expression of various phosphatases” value is listed as “downregulated”.
